Experiments:
E. faecium UL602570* = test: microbe, parasite or virus in culture; format: cell-based
Method: (§1) Antimicrobial testing – Microdilution
(§2) Antimicrobial testing was performed according to CLSI and EUCAST guidelines in microdilution.8-10 Therefore, all tested substances as well as controls were dissolved in water in different concentrations and serially diluted in MHB II (cation adjusted) on the 96-well plate. A logarithmic growing, overnight culture of the respective bacterial strain was used and adjusted to a McFarland corresponding to 1 × 10^8 cfu/ml. Afterwards the bacterial suspension was diluted to 1 ×10^6 cfu/ml and loaded on the 96-well polypropylene plates, resulting in a final bacterial concentration of 5 × 10^5 cfu/ml. After an incubation at 35 ± 1 °C for 18-20 hours (re-controlled after 24 hours) the MIC was determined as the lowest concentration without visible growth as described previously.11 For direct comparison of the tested substances, all results were calculated in mg/ml and mol/ml afterwards. […]
(§3) Resistance development in S. aureus was determined by passaging bacteria in increasing amounts of vancomycin, FU002 or, as control, fusidic acid. In principle, tubes with twofold dilutions of the compounds in 1 ml Muller Hinton broth were inoculated 1:100 with bacterial suspension. […]
(§4) For the validation of possible side effects provoked by the conjugates, the cytotoxic effect of the lead candidate FU002 on human cells was assessed in a colorimetric viability assay. […]

E. coli ATCC 25922 = format: cell-based; settings: median of at least triplicates on two different plates
Method: as §1, §2, §3, §4

P. aeruginosa ATCC 27853 = format: cell-based; settings: median of at least triplicates on two different plates
Method: as §1, §2
(§5) As further control substance, the glycopeptide antibiotic teicoplanin was evaluated. […] Resistance development in S. aureus was determined by passaging bacteria in increasing amounts of vancomycin, FU002 or, as control, fusidic acid. […]
as §4

[1] = test system: vancomycin-resistant strains (vanA, vanB and vanC); format: cell-based; settings: all values, vanB and vanC resistance types
Method: as §1, §2, §5, §4

[2] = test system: human cell lines (blood, liver, kidney); test: Cytotoxicity, XTT viability assay; format: cell-based; settings: 64 µg/ml, 24 h incubation, three human cell lines (blood, liver, kidney)
[3] = test system: Staphylococcus aureus USA300; test: Broth microdilution on vancomycin-sensitive strain; format: cell-based
Method: as §1, §2, §3, §4

[4] = test system: Staphylococcus aureus USA300 LAC (MRSA) infected mice; test: In vivo efficacy model in infected mice; settings: female Balb/c mice, FU002 56.4 mg/kg body weight per day

SMILES | MIC of E. faecium UL602570* (E. faecium UL602570*; comparison of conjugate, equimolar non-covalent mixture and vancomycin) [µg/mL] | MIC (E. coli ATCC 25922) [µg/mL] | MIC (P. aeruginosa ATCC 27853) [µg/mL] | MIC (minimum inhibitory concentration) [1] | cytotoxicity [2] | activity compared with vancomycin (MIC) [3] | bacterial burden, colony forming units (CFU) in the liver ([4]; day 4 post infection, p < 0.05, Kruskal-Wallis test) | body weight of infected mice ([4]; i.v. infection, doses every 12 hours, start 2 hours p.i.) | MIC (E. faecium UL602570*; Enterococcus faecium, read-out: MIC of E. faecium UL602570*) [µg/mL]
CC(C)C[C@H](C(=O)N[C@H]1C(=O)N[C@@H](CC(N)=O)C(=O)N[C@H]2C(=O)N[C@H]3C(=O)N[C@H](C(=O)N[C@H](C(=O)O)c4cc(O)cc(O)c4-c4cc3ccc4O)[C@H](O)c3ccc(c(Cl)c3)Oc3cc2cc(c3O[C@@H]2O[C@H](CO)[C@@H](O)[C@H](O)[C@H]2O[C@H]2C[C@](C)(N)[C@H](O)[C@H](C)O2)Oc2ccc(cc2Cl)[C@H]1O)N(C)C(=O)C1CCC(CN2C(=O)CC(SC[C@H](NC(=O)[C@H](CCCNC(=N)N)NC(=O)[C@H](CCCNC(=N)N)NC(=O)[C@H](CCCNC(=N)N)NC(=O)[C@H](CCCNC(=N)N)NC(=O)[C@H](CCCNC(=N)N)NC(=O)[C@@H](N)CCCNC(=N)N)C(N)=O)C2=O)CC1 (stereo partly drawn) [FU002] | 1 | ≥ 640 | ≥ 640 | below 4 mg L^−1 | no relevant cytotoxicity | at least as active as vancomycin | significant reduction of bacterial burden | No infection‐related body weight loss | 
CN[C@H](CC(C)C)C(=O)N[C@H]1C(=O)N[C@@H](CC(N)=O)C(=O)N[C@H]2C(=O)N[C@H]3C(=O)N[C@H](C(=O)N[C@H](C(=O)O)c4cc(O)cc(O)c4-c4cc3ccc4O)[C@H](O)c3ccc(c(Cl)c3)Oc3cc2cc(c3O[C@@H]2O[C@H](CO)[C@@H](O)[C@H](O)[C@H]2O[C@H]2C[C@](C)(N)[C@H](O)[C@H](C)O2)Oc2ccc(cc2Cl)[C@H]1O [vancomycin] |  |  |  |  |  |  |  |  | > 64

From publication PMC7323874, “Vancomycin Resistance Is Overcome by Conjugation of Polycationic Peptides” (Angewandte Chemie (International Ed. in English), 2020)
